This passage reports TGI results from PubChem BioAssay (NCI).

Test in all cases: NCI tumour cell line growth inhibition, 48 h
The test system of assay [1] is MDA-MB-231 breast.
Assay [2] has as its system MDA-N.
In assay [3] the test system is MDA-MB-435.
The subject of assay [4] is HS 578T breast.
Assay [5] has as its system DU-145 prostate.
Assay [6] concerns XF 498 CNS.
Assay [7] deals with DLD-1 colon.
Assay [8] concerns SR leukemia.
Assay [9] concerns LXFL 529 NSCLC.
The test system of assay [10] is SNB-78 CNS.
For assay [11], the system named is SN12K1 renal.
Assay [12] relates to P388 leukemia.
Assay [13] deals with P388/ADR leukemia.
Assay [14] deals with HOP-18 NSCLC.
In assay [15] the test system is RXF-631 renal.

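Interpolation was linear, between the two tested concentrations surrounding the appropriate level; five concentrations were tested over 48 hours in 96-well plates. Definition used: TGI = concentration required for complete inhibition of growth.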

Take `CCOC(=O)c1csc(NC(=O)CN2CCCCC2)n1`: the TGI in assay [1], in assay [2], in [3], in [4] and in assay [5] was > 100 µM in each case.
Consider `CC(C)OP(=O)(OC(C)C)c1nn(-c2ccc([N+](=O)[O-])cc2)c(=N)s1`, for which the TGI in [6] and in assay [7] was > 100 µM in each case.
`O=c1cnn(C/C=C/CP(=O)(O)O)c(=O)[nH]1`: the TGI in assay [1], in assay [2], in assay [3], in assay [4], in assay [8] and in [5] was > 100 µM throughout.
On to `CC1=CC(=C(c2ccc(N)c(C)c2)c2ccc(N)c(C)c2)C=CC1=N`, for which the TGI was 18.3 µM in [8]; 11.7 µM in [6]; > 100 µM in assay [7]; 15 µM in assay [9]; 23.4 µM in assay [10].
Consider `O=S(=O)(O)c1cc(S(=O)(=O)O)c2c(N=Nc3ccccc3)c(O)ccc2c1`, for which the TGI in [1], in [2], in assay [3], in assay [4] and in assay [5] was > 100 µM in each case.
As to `COC(=O)C1C(O)C(C)C(O)C(C)/C=C\C=C(C)C(=O)Nc2c(C)c(OC(C)=O)c3c(c2O)C(=O)C(C)=C2OCOC(=C23)C(C)=CC(C)(O)C(O)C(C)C1O` (stereo not given), the TGI in assay [1], in assay [2], in assay [3], in [4], in assay [8] and in assay [5] was > 100 µM in each case. Further, the TGI in assay [11] is > 63.3 µM; in assay [7], 31.4 µM; in [12], 47.1 µM; in [13] it was > 58.5 µM; in [10], > 75 µM.
Consider `O=S(=O)(O)c1cccc2ccc(O)c(N=Nc3ccc(S(=O)(=O)c4ccc(N=Nc5c(O)ccc6cccc(S(=O)(=O)O)c56)cc4)cc3)c12`, for which the TGI in [1], in assay [2], in assay [3], in assay [4] and in assay [5] was > 100 µM each time.
Take `COC1C(=[N+]=[N-])C(=O)NC(=O)N1C1OC(COC(c2ccccc2)(c2ccccc2)c2ccccc2)C(O)C1O` (stereo not given): the TGI in assay [14] worked out at 37.5 µM; in assay [7] it was 37.3 µM; in assay [9] it was 32.1 µM; in assay [10] it was 45.6 µM.
In the case of `COc1cccc2c1C(=O)c1c(O)c3c(c(O)c1C2=O)CC(O)(C(C)=O)CC3OC1CC([N+](C)(C)C)C(O)C(C)O1` (stereo not given), the TGI in assay [15] was > 100 µM; in [8] it was > 100 µM; in assay [14], > 100 µM; in [6], 92.2 µM; in [7] it was > 100 µM; in assay [9], > 100 µM. The TGI in assay [10] was > 100 µM.
